Measured values from ChEMBL document CHEMBL1201861, “Genomics of Drug Sensitity in Cancer screening data, Wellcome Trust Sanger Institute”.

Columns and labels:
Assay in all cases: cells
Conditions in all cases: Homo sapiens
[1] = system: D-263MG; type: functional, cell-based
Description: SANGER: Inhibition of human D-263MG cell growth in a cell viability assay.

[2] = system: HCE-T; type: functional, cell-based;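 also: cell viability assay read-out, reporting inhibition of HCE-T cell growth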
Description: SANGER: Inhibition of human HCE-T cell growth in a cell viability assay.

[3] = system: BT-474; type: functional, cell-based
Description: SANGER: Inhibition of human BT-474 cell growth in a cell viability assay.

[4] = system: RH-1; type: functional, cell-based;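 also: growth inhibition of human RH-1 cells, read out with a cell viability assay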
Description: SANGER: Inhibition of human RH-1 cell growth in a cell viability assay.

[5] = system: JVM-2; type: functional, cell-based;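 also: growth inhibition of JVM-2 cells determined by a cell viability assay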
Description: SANGER: Inhibition of human JVM-2 cell growth in a cell viability assay.

[6] = system: KS-1; type: functional, cell-based;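 also: growth inhibition of KS-1 cells, read out with a cell viability assay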
Description: SANGER: Inhibition of human KS-1 cell growth in a cell viability assay.

[7] = system: Lu-65; type: functional, cell-based;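 also: growth inhibition of Lu-65 cancer cells, read out by a cell viability assay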
Description: SANGER: Inhibition of human LU-65 cell growth in a cell viability assay.

[8] = system: HEL; type: functional, cell-based;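 also: growth inhibition of HEL cells, read out with a cell viability assay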
Description: SANGER: Inhibition of human HEL cell growth in a cell viability assay.

[9] = system: SH-4; type: functional, cell-based;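 also: growth inhibition of SH-4 cells, read out with a cell viability assay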
Description: SANGER: Inhibition of human SH-4 cell growth in a cell viability assay.

[10] = system: J-RT3-T3-5; type: functional, cell-based;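 also: cell viability assay measuring growth inhibition of human J-RT3-T3-5 cells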
Description: SANGER: Inhibition of human J-RT3-T3-5 cell growth in a cell viability assay.

[11] = system: GR-ST; type: functional, cell-based
Description: SANGER: Inhibition of human GR-ST cell growth in a cell viability assay.

[12] = system: KU812 cell line; type: functional, cell-based;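 also: growth inhibition of KU812 cells, read out with a cell viability assay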
Description: SANGER: Inhibition of human KU812 cell growth in a cell viability assay.

[13] = system: ES3; type: functional, cell-based;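 also: growth inhibition of ES3 cells, read out with a cell viability assay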
Description: SANGER: Inhibition of human ES3 cell growth in a cell viability assay.

[14] = system: KURAMOCHI; type: functional, cell-based;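 also: growth inhibition of KURAMOCHI cells, read out with a cell viability assay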
Description: SANGER: Inhibition of human KURAMOCHI cell growth in a cell viability assay.

[15] = system: ES8; type: functional, cell-based;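 also: growth inhibition of human ES8 cells, read out with a cell viability assay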
Description: SANGER: Inhibition of human ES8 cell growth in a cell viability assay.

[16] = system: SCC-15; type: functional, cell-based;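 also: growth inhibition of SCC-15 cells, read out with a cell viability assay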
Description: SANGER: Inhibition of human SCC-15 cell growth in a cell viability assay.

[17] = system: 8-MG-BA; type: functional, cell-based;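 also: growth inhibition of 8-MG-BA cells, read out with a cell viability assay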
Description: SANGER: Inhibition of human 8-MG-BA cell growth in a cell viability assay.

[18] = system: MSTO-211H; type: functional, cell-based
Description: SANGER: Inhibition of human MSTO-211H cell growth in a cell viability assay.

[19] = system: OMC-1; type: functional, cell-based;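 also: growth inhibition of the OMC-1 cell line, measured by a cell viability assay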
Description: SANGER: Inhibition of human OMC-1 cell growth in a cell viability assay.

[20] = system: SHP77; type: functional, cell-based, SHP-77;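 also: growth inhibition of human SHP-77 cells measured by a cell viability assay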
Description: SANGER: Inhibition of human SHP-77 cell growth in a cell viability assay.

[21] = system: NTERA-2-cl-D1; type: functional, cell-based;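 also: inhibition of cell growth, measured with a cell viability assay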
Description: SANGER: Inhibition of human NTERA-S-cl-D1 cell growth in a cell viability assay.

[22] = system: GOTO; type: functional, cell-based;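 also: growth inhibition of GOTO cells, read out by a cell viability assay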
Description: SANGER: Inhibition of human GOTO cell growth in a cell viability assay.

[23] = system: NEC8; type: functional, cell-based;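 also: growth inhibition of human NEC8 cells, read out by a cell viability assay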
Description: SANGER: Inhibition of human NEC8 cell growth in a cell viability assay.

[24] = system: EW-24; type: functional, cell-based;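 also: human EW-24 cancer cell line, growth inhibition read out via a cell viability assay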
Description: SANGER: Inhibition of human EW-24 cell growth in a cell viability assay.

[25] = system: ALL-PO; type: functional, cell-based;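 also: growth inhibition of ALL-PO cells, read out by a cell viability assay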
Description: SANGER: Inhibition of human ALL-PO cell growth in a cell viability assay.

[26] = system: EC-GI-10; type: functional, cell-based
Description: SANGER: Inhibition of human EC-GI-10 cell growth in a cell viability assay.

[27] = system: GT3TKB; type: functional, cell-based;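 also: growth inhibition of the cell line, read out with a cell viability assay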
Description: SANGER: Inhibition of human GT3TKB cell growth in a cell viability assay.

[28] = system: KALS-1; type: functional, cell-based;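 also: growth inhibition of KALS-1 cells, determined with a cell viability assay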
Description: SANGER: Inhibition of human KALS-1 cell growth in a cell viability assay.

[29] = system: U-266; type: functional, cell-based
Description: SANGER: Inhibition of human U-266 cell growth in a cell viability assay.

[30] = system: EM-2; type: functional, cell-based;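 also: growth inhibition of EM-2 cells, read out with a cell viability assay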
Description: SANGER: Inhibition of human EM-2 cell growth in a cell viability assay.

[31] = system: TK-10; type: functional, cell-based;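 also: growth inhibition of TK-10 cells, read out in a cell viability assay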
Description: SANGER: Inhibition of human TK10 cell growth in a cell viability assay.

[32] = system: NCI-H23; type: functional, cell-based;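 also: cell viability assay measuring growth inhibition of NCI-H23 cells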
Description: SANGER: Inhibition of human NCI-H23 cell growth in a cell viability assay.

[33] = system: NMC-G1; type: functional, cell-based;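 also: growth inhibition of the NMC-G1 cell line, measured with a cell viability read-out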
Description: SANGER: Inhibition of human NMC-G1 cell growth in a cell viability assay.

[34] = system: LB1047-RCC; type: functional, cell-based;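 also: inhibition of cell growth, determined with a cell viability assay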
Description: SANGER: Inhibition of human LB1047-RCC cell growth in a cell viability assay.

[35] = system: NCI-H1650; type: functional, cell-based;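 also: growth inhibition of human NCI-H1650 cells measured by a cell viability assay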
Description: SANGER: Inhibition of human NCI-H1650 cell growth in a cell viability assay.

[36] = system: KNS-42; type: functional, cell-based;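 also: growth inhibition of KNS-42 cells, read out with a cell viability assay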
Description: SANGER: Inhibition of human KNS-42 cell growth in a cell viability assay.

[37] = system: SK-N-DZ; type: functional, cell-based;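 also: growth inhibition of the cancer cell line, read out through a viability assay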
Description: SANGER: Inhibition of human SK-N-DZ cell growth in a cell viability assay.

[38] = system: NCI-H720; type: functional, cell-based;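 also: growth inhibition of human NCI-H720 cells determined by a cell viability assay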
Description: SANGER: Inhibition of human NCI-H720 cell growth in a cell viability assay.

[39] = system: DSH1; type: functional, cell-based;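 also: growth inhibition of human DSH1 cells, measured with a cell viability readout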
Description: SANGER: Inhibition of human DSH1 cell growth in a cell viability assay.

[40] = system: LS-411N; type: functional, cell-based
[41] = system: C2BBe1; type: functional, cell-based;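 also: growth inhibition of C2BBe1 cells, read out through a viability assay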
Description: SANGER: Inhibition of human C2BBe1 cell growth in a cell viability assay.

[42] = system: CCRF-CEM; type: functional, cell-based;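 also: inhibition of CCRF-CEM cell growth, measured by a cell viability assay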
Description: SANGER: Inhibition of human CCRF-CEM cell growth in a cell viability assay.

[43] = system: MOLT-4; type: functional, cell-based;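 also: growth inhibition of MOLT-4 cells, determined with a cell viability readout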
Description: SANGER: Inhibition of human MOLT-4 cell growth in a cell viability assay.

[44] = system: P30-OHK; type: functional, cell-based;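 also: growth inhibition of the P30-OHK cell line, read out with a cell viability assay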
Description: SANGER: Inhibition of human P30-OHK cell growth in a cell viability assay.

[45] = system: EW-11; type: functional, cell-based;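 also: growth inhibition of human EW-11 cells, measured with a cell viability assay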
Description: SANGER: Inhibition of human EW-11 cell growth in a cell viability assay.

[46] = system: SBC-1; type: functional, cell-based;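 also: cell viability assay measuring growth inhibition of the SBC-1 cell line, IC50 being the concentration that halves growth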
Description: SANGER: Inhibition of human SBC-1 cell growth in a cell viability assay.

[47] = system: COR-L88; type: functional, cell-based;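 also: growth inhibition of COR-L88 cells, read out with a cell viability assay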
Description: SANGER: Inhibition of human COR-L88 cell growth in a cell viability assay.

[48] = system: NB5; type: functional, cell-based;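 also: growth inhibition of NB5 cells, read out as cell viability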
Description: SANGER: Inhibition of human NB5 cell growth in a cell viability assay.

[49] = system: KY821; type: functional, cell-based;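 also: growth inhibition of human KY821 cells, read out by a cell viability assay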
Description: SANGER: Inhibition of human KY821 cell growth in a cell viability assay.

[50] = system: LB373-MEL-D; type: functional, cell-based;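 also: growth inhibition of the cell line, read out in a cell viability assay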
Description: SANGER: Inhibition of human LB373-MEL-D cell growth in a cell viability assay.

[51] = system: MLMA; type: functional, cell-based;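 also: growth inhibition of MLMA cells (human), determined through a cell viability readout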
Description: SANGER: Inhibition of human MLMA cell growth in a cell viability assay.

[52] = system: IST-MES1; type: functional, cell-based;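 also: growth inhibition of IST-MES1 cells, measured with a cell viability assay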
Description: SANGER: Inhibition of human IST-MES1 cell growth in a cell viability assay.

[53] = system: GCIY; type: functional, cell-based;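 also: growth inhibition of the human GCIY cell line, read out by a cell viability assay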
Description: SANGER: Inhibition of human GCIY cell growth in a cell viability assay.

[54] = system: COLO-668; type: functional, cell-based
Description: SANGER: Inhibition of human COLO-668 cell growth in a cell viability assay.

[55] = system: NCI-H1648; type: functional, cell-based;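 also: cell viability assay measuring inhibition of NCI-H1648 cell growth, from the Sanger screening data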
Description: SANGER: Inhibition of human NCI-H1648 cell growth in a cell viability assay.

[56] = system: LS-123; type: functional, cell-based
Description: SANGER: Inhibition of human LS-123 cell growth in a cell viability assay.

[57] = system: KNS-81-FD; type: functional, cell-based;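 also: growth inhibition of KNS-81-FD cells, read out with a cell viability assay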
Description: SANGER: Inhibition of human KNS-81-FD cell growth in a cell viability assay.

[58] = system: K5; type: functional, cell-based
Description: SANGER: Inhibition of human K5 cell growth in a cell viability assay.

[59] = system: CGTH-W-1; type: functional, cell-based;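 also: growth inhibition of human CGTH-W-1 cells measured by cell viability assay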
Description: SANGER: Inhibition of human CGTH-W-1 cell growth in a cell viability assay.

[60] = system: HOP-62; type: functional, cell-based
Description: SANGER: Inhibition of human HOP-62 cell growth in a cell viability assay.

[61] = system: SNU-C2B; type: functional, cell-based
Description: SANGER: Inhibition of human SNU-C2B cell growth in a cell viability assay.

[62] = system: D283 Med; type: functional, cell-based
Description: SANGER: Inhibition of human D-283MED cell growth in a cell viability assay.

[63] = system: BB65-RCC; type: functional, cell-based
Description: SANGER: Inhibition of human BB65-RCC cell growth in a cell viability assay.

[64] = system: LNCaP-Clone-FGC; type: functional, cell-based
Description: SANGER: Inhibition of human LNCaP-Clone-FGC cell growth in a cell viability assay.

[65] = system: KE-37; type: functional, cell-based
Description: SANGER: Inhibition of human KE-37 cell growth in a cell viability assay.

[66] = system: HCE-4; type: functional, cell-based
Description: SANGER: Inhibition of human HCE-4 cell growth in a cell viability assay.

Cn1cc(/C=C2\C(=O)Nc3cccnc32)c2ccccc21 was tested, and the IC50 [1] was > 2000 nM, the IC50 [2] was > 2000 nM and the IC50 [3] was > 2000 nM. For the same compound, the IC50 [4] was > 2000 nM, the IC50 [5] was > 2000 nM and the IC50 [6] was > 2000 nM. For the same compound, the IC50 [7] was > 2000 nM, the IC50 [8] was > 2000 nM and the IC50 [9] was > 2000 nM. For the same compound, the IC50 [10] was > 2000 nM, the IC50 [11] was > 2000 nM and the IC50 [12] was > 2000 nM. For the same compound, the IC50 [13] was > 2000 nM, the IC50 [14] was > 2000 nM and the IC50 [15] was > 2000 nM. For the same compound, the IC50 [16] was > 2000 nM, the IC50 [17] was > 2000 nM and the IC50 [18] was > 2000 nM. The IC50 [19] was > 2000 nM, the IC50 [20] was > 2000 nM and the IC50 [21] was > 2000 nM. For the same compound, the IC50 [22] was > 2000 nM, the IC50 [23] was 1230 nM and the IC50 [24] was > 2000 nM. The IC50 [25] was > 2000 nM, the IC50 [26] was > 2000 nM and the IC50 [27] was > 2000 nM. The IC50 [28] was > 2000 nM, the IC50 [29] was > 2000 nM and the IC50 [30] was > 2000 nM. The IC50 [31] was > 2000 nM, the IC50 [32] was > 2000 nM and the IC50 [33] was > 2000 nM. The IC50 [34] was > 2000 nM, the IC50 [35] was > 2000 nM and the IC50 [36] was > 2000 nM. The IC50 [37] was > 2000 nM, the IC50 [38] was > 2000 nM and the IC50 [39] was > 2000 nM. The IC50 [40] was > 2000 nM, the IC50 [41] was > 2000 nM and the IC50 [42] was > 2000 nM. For the same compound, the IC50 [43] was > 2000 nM, the IC50 [44] was > 2000 nM and the IC50 [45] was > 2000 nM. For the same compound, the IC50 [46] was > 2000 nM, the IC50 [47] was > 2000 nM and the IC50 [48] was > 2000 nM. For the same compound, the IC50 [49] was > 2000 nM, the IC50 [50] was > 2000 nM and the IC50 [51] was > 2000 nM. For the same compound, the IC50 [52] was > 2000 nM, the IC50 [53] was > 2000 nM and the IC50 [54] was > 2000 nM. For the same compound, the IC50 [55] was > 2000 nM, the IC50 [56] was > 2000 nM and the IC50 [57] was > 2000 nM. The IC50 [58] was > 2000 nM, the IC50 [59] was > 2000 nM and the IC50 [60] was 322 nM. The IC50 [61] was > 2000 nM, the IC50 [62] was > 2000 nM and the IC50 [63] was > 2000 nM. The IC50 [64] was > 2000 nM, the IC50 [65] was > 2000 nM and the IC50 [66] was > 2000 nM.

In the case of O=c1[nH]c2ccccc2n1C1CCN(Cc2ccc(-c3nc4cc5[nH]cnc5cc4nc3-c3ccccc3)cc2)CC1, the IC50 [1] is reported as > 2560 nM, the IC50 [2] is reported as > 2560 nM and the IC50 [3] is reported as > 2560 nM. The IC50 [4] was > 2560 nM, the IC50 [5] was > 2560 nM and the IC50 [6] was > 2560 nM. The IC50 [7] was > 2560 nM, the IC50 [8] was > 2560 nM and the IC50 [9] was > 2560 nM. For the same compound, the IC50 [10] was > 2560 nM, the IC50 [11] was > 2560 nM and the IC50 [12] was 1730 nM. For the same compound, the IC50 [13] was > 2560 nM, the IC50 [14] was 2310 nM and the IC50 [15] was > 2560 nM. The IC50 [16] was > 2560 nM, the IC50 [17] was > 2560 nM and the IC50 [18] was > 2560 nM. For the same compound, the IC50 [19] was > 2560 nM, the IC50 [20] was > 2560 nM and the IC50 [21] was > 2560 nM. The IC50 [22] was > 2560 nM, the IC50 [23] was > 2560 nM and the IC50 [24] was > 2560 nM. For the same compound, the IC50 [25] was > 2560 nM, the IC50 [26] was > 2560 nM and the IC50 [27] was > 2560 nM. For the same compound, the IC50 [28] was > 2560 nM, the IC50 [29] was > 2560 nM and the IC50 [30] was > 2560 nM. The IC50 [31] was > 2560 nM, the IC50 [32] was > 2560 nM and the IC50 [33] was > 2560 nM. The IC50 [34] was > 2560 nM, the IC50 [35] was > 2560 nM and the IC50 [36] was > 2560 nM. For the same compound, the IC50 [37] was > 2560 nM, the IC50 [38] was > 2560 nM and the IC50 [39] was 987 nM. The IC50 [40] was 1250 nM, the IC50 [41] was > 2560 nM and the IC50 [42] was > 2560 nM. For the same compound, the IC50 [43] was > 2560 nM, the IC50 [44] was > 2560 nM and the IC50 [45] was > 2560 nM. The IC50 [46] was > 2560 nM, the IC50 [47] was > 2560 nM and the IC50 [48] was > 2560 nM. For the same compound, the IC50 [49] was > 2560 nM, the IC50 [50] was > 2560 nM and the IC50 [51] was > 2560 nM. The IC50 [52] was > 2560 nM, the IC50 [53] was > 2560 nM and the IC50 [54] was > 2560 nM. The IC50 [55] was > 2560 nM, the IC50 [56] was > 2560 nM and the IC50 [57] was > 2560 nM. The IC50 [58] was > 2560 nM, the IC50 [59] was > 2560 nM and the IC50 [60] was > 2560 nM. The IC50 [61] was > 2560 nM, the IC50 [62] was > 2560 nM and the IC50 [63] was > 2560 nM. For the same compound, the IC50 [64] was > 2560 nM, the IC50 [65] was 1840 nM and the IC50 [66] was > 2560 nM.
